Laboratory results: publication PMC6018746, “Activation of the p53-MDM4 regulatory axis defines the anti-tumour response to PRMT5 inhibition through its role in regulating cellular splicing” (Scientific Reports, 2018)
Where two headings read alike, the source gives them in different places.

System: panel of hematologic and solid cancer lines
Test: 6-day in vitro growth/death assay
Format: cell-based, human
Conditions: read-out: gIC50
Experimental: To further develop these molecules and to guide clinical strategy, it was necessary to understand sensitivity in preclinical models by assessing the anti-tumour activity of the PRMT5 inhibitors in various cancers.
Cell lines were obtained from ATCC or DSMZ and were grown in recommended medium, which was most frequently RPMI-1640 containing 10% FBS. Cell line proliferation assays, Western blotting, qRT-PCR, and cell cycle analyses were performed as described previously[27],[28]. Antibody and gene expression reagents are as described in Supplementary Table 16. All studies were conducted in accordance with the GSK Policy on the Care, Welfare and Treatment of Laboratory Animals and were reviewed by the Institutional Animal Care and Use Committee either at GSK or by the ethical review process at the institution where the work was performed. Detailed descriptions of all methods can be found in the Supplemental Materials.

In the case of `O=C(NC[C@H](O)CN1CCc2ccccc2C1)c1ccnc(NC2CCC2)c1` [GSK3203591], the IC50 (Homo sapiens, NCI-H747, NCIH747) is reported as 1500 nM, the IC50 (Homo sapiens, NCI-H1048, NCI-H1048) is reported as 252 nM and the IC50 (Homo sapiens, NCI-H1299, NCI-H1299) is reported as 419 nM. The IC50 (Homo sapiens, NCI-H1437, NCI-H1437) was 467 nM, the IC50 (Homo sapiens, NCI-H1563, NCI-H1563) was > 29300 nM and the IC50 (Homo sapiens, NCI-H1581, NCI-H1581) was 12800 nM. For the same compound, the IC50 (Homo sapiens, NCI-H1648, NCI-H1648) was 20700 nM, the IC50 (Homo sapiens, NCI-H1650, NCI-H1650) was 8770 nM and the IC50 (Homo sapiens, NCI-H1651, NCI-H1651) was 15300 nM. It also gave an IC50 (Homo sapiens, NCI-H1915, NCI-H1915) of 1130 nM, an IC50 (Homo sapiens, NCI-H1975, NCI-H1975) of 289 nM and an IC50 (Homo sapiens, NCI-H2087, NCI-H2087) of 510 nM. It also gave an IC50 (Homo sapiens, NCI-H2170, NCI-H2170) of 6390 nM, an IC50 (Homo sapiens, NKM-1) of 7.6 nM and an IC50 (Homo sapiens, NOMO-1, NOMO-1) of 7320 nM. For the same compound, the IC50 (Homo sapiens, NU-DHL-1, NU-DHL-1) was 101 nM, the IC50 (Homo sapiens, NU-DUL-1, NU-DUL-1) was 548 nM and the IC50 (Homo sapiens, OCI-AML-3, OCI-AML3) was 373 nM. The IC50 (Homo sapiens, OCI-AML-5, OCI-AML5) was 297 nM, the IC50 (Homo sapiens, OCI-LY19, OCI-LY-19) was 101 nM and the IC50 (Homo sapiens, OCI-Ly1, OCILY-1) was > 29300 nM. The IC50 (Homo sapiens, OCI-Ly3, OCI-LY3) was 1510 nM, the IC50 (Homo sapiens, OCI-Ly10, OCILY-10) was 4470 nM and the IC50 (Homo sapiens, OCI-Ly18, OCI-LY-18) was 30.8 nM. It also gave an IC50 (Homo sapiens, OCI-M1, OCI-M1) of 130 nM, an IC50 (Homo sapiens, OPM-2, OPM-2) of 40.2 nM and an IC50 (Homo sapiens, PANC-1, PANC-1) of 939 nM. The IC50 (Homo sapiens, PANC-03-27, PANC-03.27) was 2480 nM, the IC50 (Homo sapiens, PANC-08-13, PANC-08.13) was 136 nM and the IC50 (Homo sapiens, PC-3, PC-3) was 1890 nM. For the same compound, the IC50 (Homo sapiens, PC-9, PC9) was 95 nM, the IC50 (Homo sapiens, PER-403, PER-403) was 29.2 nM and the IC50 (Homo sapiens, PER-624) was 526 nM. It also gave an IC50 (Homo sapiens, PER-704) of 374 nM, an IC50 (Homo sapiens, PL-21, PL-21) of 329 nM and an IC50 (Homo sapiens, PSN1, PSN-1) of 504 nM. The IC50 (Homo sapiens, PaTu 8988t, PA-TU-8988T) was > 29300 nM, the IC50 (Homo sapiens, Panc 02.03, PANC-02.03) was 1370 nM and the IC50 (Homo sapiens, Panc 04.03, PANC-04.03) was 622 nM. For the same compound, the IC50 (Homo sapiens, Panc1005, PANC-10.05) was 2080 nM, the IC50 (Homo sapiens, Pfeiffer) was 352 nM and the IC50 (Homo sapiens, RCK8, RCK8) was 2110 nM. The IC50 (Homo sapiens, RIVA) was 68.4 nM, the IC50 (Homo sapiens, RKO) was 2210 nM and the IC50 (Homo sapiens, RL) was 1430 nM. The IC50 (Homo sapiens, RPMI-6666, RPMI-6666) was 2710 nM, the IC50 (Homo sapiens, RPMI-8226, RPMI-8226) was 135 nM and the IC50 (Homo sapiens, RPMI-8226-DOX) was 204 nM. For the same compound, the IC50 (Homo sapiens, RPMI-8226-LR5) was 303 nM, the IC50 (Homo sapiens, RPMI-8226-MR20) was 384 nM and the IC50 (Homo sapiens, RT-112, RT-112) was 1110 nM. The IC50 (Homo sapiens, RVH-421, RVH-421) was > 29300 nM, the IC50 (Homo sapiens, Rec1, REC-1) was 1990 nM and the IC50 (Homo sapiens, SC-1, SC-1) was 117 nM. For the same compound, the IC50 (Homo sapiens, SCaBER) was 255 nM, the IC50 (Homo sapiens, SF-126, SF-126) was 386 nM and the IC50 (Homo sapiens, SF-295, SF295) was 9840 nM. The IC50 (Homo sapiens, SF-539, SF539) was 75 nM, the IC50 (Homo sapiens, SH-4, SH-4) was 2560 nM and the IC50 (Homo sapiens, SHI-1) was 358 nM. It also gave an IC50 (Homo sapiens, SIG-M5, SIG-M5) of 316 nM, an IC50 (Homo sapiens, SK-BR-3, SK-BR-3) of 132 nM and an IC50 (Homo sapiens, SK-CO-1, SK-CO-1) of 473 nM. It also gave an IC50 (Homo sapiens, SK-LU-1, SK-LU-1) of 881 nM, an IC50 (Homo sapiens, SK-MEL-5, SK-MEL-5) of 111 nM and an IC50 (Homo sapiens, SK-MES-1, SK-MES-1) of 18500 nM. The IC50 (Homo sapiens, SK-MM-2, SK-MM-2) was 1260 nM, the IC50 (Homo sapiens, SK-NEP-1, SK-NEP-1) was 2240 nM and the IC50 (Homo sapiens, SK-UT-1, SK-UT-1) was 393 nM. It also gave an IC50 (Homo sapiens, SKM-1, SKM-1) of 110 nM, an IC50 (Homo sapiens, SKNO-1, SKNO-1) of 563 nM and an IC50 (Homo sapiens, SNU-16, SNU16) of 175 nM. For the same compound, the IC50 (Homo sapiens, SNU-C1, SNUC1) was 1520 nM, the IC50 (Homo sapiens, SR-786, SR-786) was 32.8 nM and the IC50 (Homo sapiens, SU-DHL10, SU-DHL-10) was 495 nM. It also gave an IC50 (Homo sapiens, SU-DHL-2, SU-DHL-2) of 86 nM, an IC50 (Homo sapiens, SU-DHL-4, SU-DHL-4) of 571 nM and an IC50 (Homo sapiens, SU-DHL-5, SU-DHL-5) of 132 nM. It also gave an IC50 (Homo sapiens, SU-DHL-6, SU-DHL-6) of 12.9 nM, an IC50 (Homo sapiens, SU-DHL-8, SU-DHL-8) of 1220 nM and an IC50 (Homo sapiens, SU-DHL-16, SU-DHL-16) of 124 nM. The IC50 (Homo sapiens, SW48, SW48) was 9340 nM, the IC50 (Homo sapiens, SW480, SW480) was 2260 nM and the IC50 (Homo sapiens, SW780, SW-780) was 450 nM. For the same compound, the IC50 (Homo sapiens, SW837, SW837) was 9150 nM, the IC50 (Homo sapiens, SW900, SW900) was 7970 nM and the IC50 (Homo sapiens, SW982, SW982) was 369 nM. It also gave an IC50 (Homo sapiens, SW1271, SW1271) of 3180 nM, an IC50 (Homo sapiens, SW1417, SW-1417) of 19600 nM and an IC50 (Homo sapiens, SW1573, SW1573) of 11400 nM. It also gave an IC50 (Homo sapiens, SW1710, SW-1710) of 10000 nM, an IC50 (Homo sapiens, SW1990, SW-1990) of 125 nM and an IC50 (Homo sapiens, SW-403, SW403) of 9760 nM. The IC50 (Homo sapiens, SW-620, SW620) was 1350 nM, the IC50 (Homo sapiens, T47D, T-47D) was 225 nM and the IC50 (Homo sapiens, T84, T84) was 1680 nM. It also gave an IC50 (Homo sapiens, T98MG) of 1300 nM, an IC50 (Homo sapiens, T-24, T24) of 650 nM and an IC50 (Homo sapiens, TCC-SUP, TCCSUP) of 11200 nM. The IC50 (Homo sapiens, TF-1, TF-1) was 138 nM, the IC50 (Homo sapiens, THP-1, THP-1) was 951 nM and the IC50 (Homo sapiens, Toledo) was 443 nM. The IC50 (Homo sapiens, U138-MG, U138MG) was > 29300 nM, the IC50 (Homo sapiens, U266B1) was 652 nM and the IC50 (Homo sapiens, U2932, U2932) was 336 nM. It also gave an IC50 (Homo sapiens, U-87 MG) of 128 nM, an IC50 (Homo sapiens, U-251, U251MG) of 3490 nM and an IC50 (Homo sapiens, U-937, U937) of 48.6 nM. It also gave an IC50 (Homo sapiens, U-2940, U2940) of 2350 nM, an IC50 (Homo sapiens, UMC-11, UMC11) of 10700 nM and an IC50 (Homo sapiens, UMUC3, UM-UC-3) of 19200 nM. The IC50 (Homo sapiens, VCaP) was > 29300 nM, the IC50 (Homo sapiens, VM-CUB-1, VM-CUB1) was 1580 nM and the IC50 (Homo sapiens, WM 266-4, WM-266-4) was 17200 nM. For the same compound, the IC50 (Homo sapiens, WSU-FSCCL) was 268 nM, the IC50 (Homo sapiens, WSU-NHL) was 75.7 nM and the IC50 (Homo sapiens, WSUDLCL2, WSU-DLCL2) was 652 nM. The IC50 (Homo sapiens, WiDr) was 438 nM, the IC50 (Homo sapiens, YH13) was > 29300 nM and the IC50 (Homo sapiens, YKG-1, YKG1) was 254 nM. The IC50 (Homo sapiens, Z-138, Z-138) was 13.6 nM, the IC50 (Homo sapiens, ZR-75-1, ZR-75-1) was 2620 nM and the IC50 (Homo sapiens, majority (147/276) of cell lines) was < 1000 nM. It also gave an IC50 (J82) of 20900 nM, an IC50 (JM1) of 76 nM and an IC50 (JVM-2) of 172 nM. It also gave an IC50 (JeKo-1) of 6190 nM, an IC50 (LN-229) of 1150 nM and an IC50 (MAVER-1) of 133 nM. For the same compound, the IC50 (MCF-7) was 215 nM, the IC50 (MDA-MB-231) was 2930 nM and the IC50 (MINO) was 536 nM. For the same compound, the IC50 (NCI-H526-R) was 219 nM, the IC50 (NCI-H526) was 138 nM and the IC50 (PER-403) was 29 nM. The IC50 (PER-624) was 526 nM, the IC50 (PER-704) was 375 nM and the IC50 (Pfeiffer) was 352 nM. For the same compound, the IC50 (RCK8) was 2110 nM, the IC50 (REC-1) was 1990 nM and the IC50 (RIVA) was 68 nM. The IC50 (RL) was 1430 nM, the IC50 (SF295) was 9840 nM and the IC50 (SK-BR-3) was 131 nM. For the same compound, the IC50 (SU-DHL-4) was 571 nM, the IC50 (SU-DHL-5) was 132 nM and the IC50 (SU-DHL-6) was 13 nM. For the same compound, the IC50 (SU-DHL-8) was 1220 nM, the IC50 (SU-DHL-10) was 495 nM and the IC50 (SU-DHL-16) was 124 nM. For the same compound, the IC50 (SW-780) was 451 nM, the IC50 (T24) was 650 nM and the IC50 (U251MG) was 3490 nM. For the same compound, the IC50 (U937) was 49 nM, the IC50 (U2932) was 336 nM and the IC50 (U2940) was 2350 nM. It also gave an IC50 (U-87MG) of 127 nM, an IC50 (UM-UC-3) of 19200 nM and an IC50 (WSU-DLCL2) of 651 nM. The IC50 (Z-138) was 14 nM and the IC50 (ZR-75-1) was 2620 nM.
